{"source": "patent US20090041617A1", "about": "“PURIFIED HYDROGEN PEROXIDE GAS MICROBIAL CONTROL METHODS AND DEVICES” (priority 2007, published 2009)", "key": {"[1]": {"system": "Geobacillus Stearothermophilus", "source_text": "(§1) The device was subjected to tests designed and implemented by two accredited laboratories to: (a) measure the output of Purified Hydrogen Peroxide Gas (PHPG); (b) confirm that the output was substantially free of ozone; (c) confirm that the output was substantially free of VOC's; (d) measure the efficacy of PHPG against the Feline Calicivirus (an EPA-approved substitute for noroviruses), Methicillin Resistant Staphylococcus Aureous (MRSA), Vancomyacin Resistant Enterococcus Faecalis (VRE), Clostridium Difficile (C-Diff), Geobacillus Stearothermophilus, (a stable bacteria used by the insurance industry to verify successful microbial remediation), and Aspergillus Niger (a common fungus); and (e) test at a variety of ambient relative humidities including 35% to 40% at 70 to 72 degrees Fahrenheit, 56% to 59% at 81 to 85 degrees Fahrenheit, and 98% at 78 degrees Fahrenheit."}, "[2]": {"system": "Feline Calicivirus (Norovirus substitute)", "details": "for Average Virus Infectivity Observed After Exposure / Percent Reduction Compared to Corresponding Natural Die-off / Percent Reduction as Compared to Time Zero Virus Control: PHPG 0.005-0.01 ppm, 35%-40% relative humidity", "source_text": "as §1\n(§2) In quantitative microbial testing at ATS labs in Eagan, Minn. the following data was collected."}, "MRSA (ATCC 33592)": {"system": "MRSA (ATCC 33592)", "details": "for Average CFU/Test carrier (Survivors in the test) / Percent Reduction Compared to Corresponding Natural Die-off / Percent Reduction as Compared to Time Zero Control: PHPG 0.005-0.01 ppm, 35%-40% relative humidity", "source_text": "as §1, §2"}, "VRE (ATCC 51575)": {"system": "VRE (ATCC 51575)", "details": "for Average CFU/Test carrier (Survivors in the test) / Percent Reduction Compared to Corresponding Natural Die-off / Percent Reduction as Compared to Time Zero Control: PHPG 0.005-0.01 ppm, 35%-40% relative humidity", "source_text": "as §1, §2"}, "A. niger (ATCC 16404)": {"system": "A. niger (ATCC 16404)", "details": "for Average CFU/Test carrier (Survivors in the test) / Percent Reduction Compared to Corresponding Natural Die-off / Percent Reduction as Compared to Time Zero Control: PHPG 0.005-0.01 ppm, 35%-40% relative humidity", "source_text": "as §1, §2"}, "[3]": {"system": "C. difficile (ATCC 700792)", "details": "for Average CFU/Test carrier (Survivors in the test) / Percent Reduction Compared to Corresponding Natural Die-off / Percent Reduction as Compared to Time Zero Control: PHPG 0.005-0.01 ppm, 35%-40% relative humidity", "source_text": "as §1, §2"}, "[4]": {"details": "PHPG about 0.005 ppm to about 0.10 ppm in the environment"}}, "note": "Like-named read-outs stand apart in the source and are kept apart here."}
{"smiles": "OO", "note": "[PHPG, Purified Hydrogen Peroxide Gas]", "values": [{"measurement": "efficacy in words", "setting": "[1]; [4]", "value": "proven effective"}, {"measurement": "reduction of the bacteria on inoculated chips", "setting": "[1]; several tests, all cases, within a matter of hours", "value": "significant reduction"}, {"measurement": "efficacy in words", "setting": "[2]; [4]", "value": "proven effective"}, {"measurement": "Average Virus Infectivity Observed After Exposure", "setting": "[2]; exposure 2 hrs", "value": 4.3, "unit": "log10"}, {"measurement": "Percent Reduction Compared to Corresponding Natural Die-off", "setting": "[2]; exposure 2 hrs", "value": 96.8, "unit": "%"}, {"measurement": "Percent Reduction as Compared to Time Zero Virus Control", "setting": "[2]; exposure 2 hrs", "value": 99.5, "unit": "%"}, {"measurement": "Average Virus Infectivity Observed After Exposure", "setting": "[2]; exposure 6 hrs", "value": 2.3, "unit": "log10"}, {"measurement": "Percent Reduction Compared to Corresponding Natural Die-off", "setting": "[2]; exposure 6 hrs", "value": 99.8, "unit": "%"}, {"measurement": "Percent Reduction as Compared to Time Zero Virus Control", "setting": "[2]; exposure 6 hrs", "value": 99.995, "unit": "%"}, {"measurement": "Percent Reduction Compared to Corresponding Natural Die-off", "setting": "[2]; exposure 24 hrs", "value": 99.8, "unit": "%"}, {"measurement": "Percent Reduction as Compared to Time Zero Virus Control", "setting": "[2]; exposure 24 hrs", "value": "≧99.9999%"}, {"measurement": "Average Virus Infectivity Observed After Exposure", "setting": "[2]; exposure 24 hrs, virus detected in only one replicate", "value": "≦0.6 log10"}, {"measurement": "Average CFU/Test carrier (Survivors in the test)", "setting": "MRSA (ATCC 33592); 2 hours", "value": "<1 (no survivors) CFU/Test carrier"}, {"measurement": "Percent Reduction Compared to Corresponding Natural Die-off", "setting": "MRSA (ATCC 33592); 2 hours", "value": ">99.9999", "unit": "%"}, {"measurement": "Percent Reduction as Compared to Time Zero Control", "setting": "MRSA (ATCC 33592); 2 hours", "value": ">99.9999", "unit": "%"}, {"measurement": "Average CFU/Test carrier (Survivors in the test)", "setting": "MRSA (ATCC 33592); 6 hours", "value": "<1 (no survivors) CFU/Test carrier"}, {"measurement": "Percent Reduction Compared to Corresponding Natural Die-off", "setting": "MRSA (ATCC 33592); 6 hours", "value": ">99.9999", "unit": "%"}, {"measurement": "Percent Reduction as Compared to Time Zero Control", "setting": "MRSA (ATCC 33592); 6 hours", "value": ">99.9999", "unit": "%"}, {"measurement": "Average CFU/Test carrier (Survivors in the test)", "setting": "MRSA (ATCC 33592); 24 hours", "value": "<1 (no survivors) CFU/Test carrier"}, {"measurement": "Percent Reduction Compared to Corresponding Natural Die-off", "setting": "MRSA (ATCC 33592); 24 hours", "value": ">99.9999", "unit": "%"}, {"measurement": "Percent Reduction as Compared to Time Zero Control", "setting": "MRSA (ATCC 33592); 24 hours", "value": ">99.9999", "unit": "%"}, {"measurement": "efficacy in words", "setting": "MRSA (ATCC 33592); [4]", "value": "proven effective"}, {"measurement": "Average CFU/Test carrier (Survivors in the test)", "setting": "VRE (ATCC 51575); 2 hours", "value": "<1 (no survivors) CFU/Test carrier"}, {"measurement": "Percent Reduction Compared to Corresponding Natural Die-off", "setting": "VRE (ATCC 51575); 2 hours", "value": ">99.999", "unit": "%"}, {"measurement": "Percent Reduction as Compared to Time Zero Control", "setting": "VRE (ATCC 51575); 2 hours", "value": ">99.9999", "unit": "%"}, {"measurement": "Average CFU/Test carrier (Survivors in the test)", "setting": "VRE (ATCC 51575); 6 hours", "value": "<1 (no survivors) CFU/Test carrier"}, {"measurement": "Percent Reduction Compared to Corresponding Natural Die-off", "setting": "VRE (ATCC 51575); 6 hours", "value": ">99.99", "unit": "%"}, {"measurement": "Percent Reduction as Compared to Time Zero Control", "setting": "VRE (ATCC 51575); 6 hours", "value": ">99.9999", "unit": "%"}, {"measurement": "Average CFU/Test carrier (Survivors in the test)", "setting": "VRE (ATCC 51575); 24 hours", "value": "<1 (no survivors) CFU/Test carrier"}, {"measurement": "Percent Reduction Compared to Corresponding Natural Die-off", "setting": "VRE (ATCC 51575); 24 hours", "value": ">99.9", "unit": "%"}, {"measurement": "Percent Reduction as Compared to Time Zero Control", "setting": "VRE (ATCC 51575); 24 hours", "value": ">99.9999", "unit": "%"}, {"measurement": "efficacy in words", "setting": "VRE (ATCC 51575); [4]", "value": "proven effective"}, {"measurement": "Average CFU/Test carrier (Survivors in the test)", "setting": "A. niger (ATCC 16404); 2 hours", "value": "1.9 × 10^5 CFU/ CFU/Carrier"}, {"measurement": "Percent Reduction Compared to Corresponding Natural Die-off", "setting": "A. niger (ATCC 16404); 2 hours", "value": 13.6, "unit": "%"}, {"measurement": "Percent Reduction as Compared to Time Zero Control", "setting": "A. niger (ATCC 16404); 2 hours", "value": 19.1, "unit": "%"}, {"measurement": "Average CFU/Test carrier (Survivors in the test)", "setting": "A. niger (ATCC 16404); 6 hours", "value": "4.67 × 10^4 CFU/ CFU/Carrier"}, {"measurement": "Percent Reduction Compared to Corresponding Natural Die-off", "setting": "A. niger (ATCC 16404); 6 hours", "value": 81.3, "unit": "%"}, {"measurement": "Percent Reduction as Compared to Time Zero Control", "setting": "A. niger (ATCC 16404); 6 hours", "value": 80.1, "unit": "%"}, {"measurement": "Average CFU/Test carrier (Survivors in the test)", "setting": "A. niger (ATCC 16404); 24 hours", "value": "1.2 × 10^4 CFU/ CFU/Carrier"}, {"measurement": "Percent Reduction Compared to Corresponding Natural Die-off", "setting": "A. niger (ATCC 16404); 24 hours", "value": 90.8, "unit": "%"}, {"measurement": "Percent Reduction as Compared to Time Zero Control", "setting": "A. niger (ATCC 16404); 24 hours", "value": 94.9, "unit": "%"}, {"measurement": "efficacy in words", "setting": "A. niger (ATCC 16404); [4]", "value": "proven effective"}, {"measurement": "Average CFU/Test carrier (Survivors in the test)", "setting": "[3]; 2 hours", "value": "2.18 × 10^5 CFU/ CFU/Carrier"}, {"measurement": "Percent Reduction Compared to Corresponding Natural Die-off", "setting": "[3]; 2 hours", "value": 9.2, "unit": "%"}, {"measurement": "Percent Reduction as Compared to Time Zero Control", "setting": "[3]; 2 hours", "value": 27.3, "unit": "%"}, {"measurement": "Average CFU/Test carrier (Survivors in the test)", "setting": "[3]; 6 hours", "value": "1.1 × 10^5 CFU/ CFU/Carrier"}, {"measurement": "Percent Reduction Compared to Corresponding Natural Die-off", "setting": "[3]; 6 hours", "value": 60.6, "unit": "%"}, {"measurement": "Percent Reduction as Compared to Time Zero Control", "setting": "[3]; 6 hours", "value": 63.3, "unit": "%"}, {"measurement": "Average CFU/Test carrier (Survivors in the test)", "setting": "[3]; 24 hours", "value": "7.3 × 10^4 CFU/ CFU/Carrier"}, {"measurement": "Percent Reduction Compared to Corresponding Natural Die-off", "setting": "[3]; 24 hours", "value": 70.4, "unit": "%"}, {"measurement": "Percent Reduction as Compared to Time Zero Control", "setting": "[3]; 24 hours", "value": 75.7, "unit": "%"}, {"measurement": "efficacy in words", "setting": "[3]; [4]", "value": "proven effective"}]}
